Measurements taken from US12227495B2, “Herbicidal compounds” (SYNGENTA CROP PROTECTION AG, priority 2018, dated 2025).

Experiments:
Format in all cases: in vivo
Details in all cases: evaluated after 13 days
[1] = system: Amaranthus retoflexus (AMARE); test: Pre-emergence herbicide test, glasshouse, percentage damage
Summary of the method: (§1)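 Spray: acetone/water (50:50) with 0.5% Tween 20, 500 g/ha unless stated; pre-emergence 1 d after sowing, post-emergence at 8 d. Glasshouse 24/16 °C, 14 h light, 65% RH, watered twice daily. Read at 13 d, % damage as 1-5 score.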

Solanum nigrum (SOLNI) [2] = test: as above
Summary of the method: as §1

Lolium perenne (LOLPE) [3] = test: as above
Summary of the method: as §1

[4] = system: Ipomoea hederacea (IPOHE); test: as above
Summary of the method: as §1

Setaria faberi (SETFA) [5] = test: as above
Summary of the method: as §1

[6] = system: Echinochloa crus-galli (ECHCG); test: as above
Summary of the method: as §1

[7] = system: Amaranthus retoflexus (AMARE); test: Post-emergence herbicide test, glasshouse, percentage damage
Summary of the method: as §1

Solanum nigrum (SOLNI) [8] = test: as above
Summary of the method: as §1

Lolium perenne (LOLPE) [9] = test: as above
Summary of the method: as §1

[10] = system: Ipomoea hederacea (IPOHE); test: as above
Summary of the method: as §1

Setaria faberi (SETFA) [11] = test: as above
Summary of the method: as §1

[12] = system: Echinochloa crus-galli (ECHCG); test: as above
Summary of the method: as §1

SMILES	Pre-emergence Test AMARE percentage damage (five point scale) ([1]; rate 1000 g/ha)	Pre-emergence Test SOLNI percentage damage (five point scale) (Solanum nigrum (SOLNI) [2]; rate 1000 g/ha)	Pre-emergence Test LOLPE percentage damage (five point scale) (Lolium perenne (LOLPE) [3]; rate 1000 g/ha)	Pre-emergence Test IPOHE percentage damage (five point scale) ([4]; rate 1000 g/ha)	Pre-emergence Test SETFA percentage damage (five point scale) (Setaria faberi (SETFA) [5]; rate 1000 g/ha)	Pre-emergence Test ECHCG percentage damage (five point scale) ([6]; rate 1000 g/ha)	percentage damage caused to the plant, AMARE ([7]; 1000 g/ha)	percentage damage caused to the plant, SOLNI (Solanum nigrum (SOLNI) [8]; 1000 g/ha)	percentage damage caused to the plant, LOLPE (Lolium perenne (LOLPE) [9]; 1000 g/ha)	percentage damage caused to the plant, IPOHE ([10]; 1000 g/ha)	percentage damage caused to the plant, SETFA (Setaria faberi (SETFA) [11]; 1000 g/ha)	percentage damage caused to the plant, ECHCG ([12]; 1000 g/ha)	further results
Fc1cccc(Oc2cccc(Br)c2-c2cc(C(F)F)no2)n1 [Compound A98]	4 (4=61-80%)	3 (3=41-60%)	3 (3=41-60%)	1 (1=0-20%)	5 (5=81-100%)	5 (5=81-100%)	4 (4=61-80%)	4 (4=61-80%)	3 (3=41-60%)	3 (3=41-60%)	5 (5=81-100%)	4 (4=61-80%)	–
Fc1cc(Cl)cnc1Oc1ccccc1-n1cc(C(F)(F)F)nn1 [Compound A82]	5 (5=81-100%)	4 (4=61-80%)	5 (5=81-100%)	5 (5=81-100%)	5 (5=81-100%)	5 (5=81-100%)	5 (5=81-100%)	5 (5=81-100%)	5 (5=81-100%)	5 (5=81-100%)	5 (5=81-100%)	4 (4=61-80%)	–
Fc1cccc(Oc2cc(Cl)ccn2)c1-c1cc(C(F)F)no1 [Compound A60]	5 (5=81-100%)	1 (1=0-20%)	1 (1=0-20%)	1 (1=0-20%)	1 (1=0-20%)	2 (2=21-40%)	4 (4=61-80%)	4 (4=61-80%)	1 (1=0-20%)	2 (2=21-40%)	2 (2=21-40%)	1 (1=0-20%)	–
Cc1cccc(-c2cc(C(F)F)no2)c1Oc1ncc(Cl)cc1F [Compound A94]	4 (4=61-80%)	2 (2=21-40%)	2 (2=21-40%)	1 (1=0-20%)	2 (2=21-40%)	3 (3=41-60%)	4 (4=61-80%)	4 (4=61-80%)	2 (2=21-40%)	1 (1=0-20%)	3 (3=41-60%)	2 (2=21-40%)	–
N#Cc1cccc(Oc2ncc(F)cc2F)c1-c1cc(C(F)F)no1 [Compound A160]	5 (5=81-100%)	4 (4=61-80%)	5 (5=81-100%)	5 (5=81-100%)	5 (5=81-100%)	5 (5=81-100%)	5 (5=81-100%)	5 (5=81-100%)	5 (5=81-100%)	5 (5=81-100%)	5 (5=81-100%)	5 (5=81-100%)	–
Fc1cc(Cl)cnc1Oc1cccc(Cl)c1-c1cc(C(F)F)no1 [Compound A42]	–	–	–	–	–	–	–	–	–	–	–	–	Pre-emergence Test AMARE percentage damage (five point scale) ([1]; rate 250 g/ha): 5 (5=81-100%); Pre-emergence Test SOLNI percentage damage (five point scale) (Solanum nigrum (SOLNI) [2]; rate 250 g/ha): 4 (4=61-80%); Pre-emergence Test LOLPE percentage damage (five point scale) (Lolium perenne (LOLPE) [3]; rate 250 g/ha): 5 (5=81-100%); Pre-emergence Test IPOHE percentage damage (five point scale) ([4]; rate 250 g/ha): 3 (3=41-60%); Pre-emergence Test SETFA percentage damage (five point scale) (Setaria faberi (SETFA) [5]; rate 250 g/ha): 5 (5=81-100%); Pre-emergence Test ECHCG percentage damage (five point scale) ([6]; rate 250 g/ha): 5 (5=81-100%); percentage damage caused to the plant, AMARE ([7]; 250 g/ha): 5 (5=81-100%); percentage damage caused to the plant, SOLNI (Solanum nigrum (SOLNI) [8]; 250 g/ha): 5 (5=81-100%); percentage damage caused to the plant, LOLPE (Lolium perenne (LOLPE) [9]; 250 g/ha): 5 (5=81-100%); percentage damage caused to the plant, IPOHE ([10]; 250 g/ha): 4 (4=61-80%); percentage damage caused to the plant, SETFA (Setaria faberi (SETFA) [11]; 250 g/ha): 5 (5=81-100%); percentage damage caused to the plant, ECHCG ([12]; 250 g/ha): 4 (4=61-80%)
Fc1cc(C(F)(F)F)cnc1Oc1cccc(Br)c1-c1cc(C(F)F)no1 [Compound A104]	4 (4=61-80%)	2 (2=21-40%)	4 (4=61-80%)	4 (4=61-80%)	5 (5=81-100%)	4 (4=61-80%)	4 (4=61-80%)	5 (5=81-100%)	3 (3=41-60%)	4 (4=61-80%)	4 (4=61-80%)	4 (4=61-80%)	–
FC(F)c1cc(-c2c(Br)cccc2Oc2cc(Cl)ccn2)on1 [Compound A86]	4 (4=61-80%)	2 (2=21-40%)	4 (4=61-80%)	1 (1=0-20%)	5 (5=81-100%)	5 (5=81-100%)	4 (4=61-80%)	4 (4=61-80%)	4 (4=61-80%)	4 (4=61-80%)	4 (4=61-80%)	4 (4=61-80%)	–
N#Cc1ccc(Oc2cccc(Cl)c2-c2cc(C(F)F)no2)nc1 [Compound A115]	5 (5=81-100%)	4 (4=61-80%)	5 (5=81-100%)	5 (5=81-100%)	5 (5=81-100%)	5 (5=81-100%)	5 (5=81-100%)	5 (5=81-100%)	4 (4=61-80%)	5 (5=81-100%)	5 (5=81-100%)	4 (4=61-80%)	–
FC(F)c1cc(-c2c(Cl)cccc2Oc2ccc(Cl)cn2)on1 [Compound A113]	5 (5=81-100%)	4 (4=61-80%)	5 (5=81-100%)	4 (4=61-80%)	5 (5=81-100%)	5 (5=81-100%)	5 (5=81-100%)	4 (4=61-80%)	5 (5=81-100%)	5 (5=81-100%)	5 (5=81-100%)	4 (4=61-80%)	–
Fc1cc(Cl)cnc1Oc1ccccc1-n1ncc(C(F)(F)F)n1 [Compound A81]	5 (5=81-100%)	3 (3=41-60%)	1 (1=0-20%)	2 (2=21-40%)	4 (4=61-80%)	4 (4=61-80%)	5 (5=81-100%)	4 (4=61-80%)	1 (1=0-20%)	2 (2=21-40%)	4 (4=61-80%)	4 (4=61-80%)	–
O=[N+]([O-])c1ccc(Oc2ccccc2-n2cc(C(F)(F)F)cn2)nc1 [Compound A14, 5-nitro-2-[2-[4-(trifluoromethyl)pyrazol-1-yl]phenoxy]pyridine]	5 (5=81-100%)	5 (5=81-100%)	5 (5=81-100%)	3 (3=41-60%)	5 (5=81-100%)	5 (5=81-100%)	5 (5=81-100%)	5 (5=81-100%)	5 (5=81-100%)	4 (4=61-80%)	5 (5=81-100%)	5 (5=81-100%)	–
